Experimental data reported in patent US20240197652A1, “KETAMINE IN THE TREATMENT OF […]” (Awakn LS Europe Holdings Limited, priority 2021, published 2024).

Legend:
[1] = test system: subjects with gambling disorder; assay: Gambling Related Cognitions Scale (GRCS), gambling expectancy, Example 7; assay type: in vivo, human; settings: for problem gambling expectancy score (GRCS) at 2-week follow up: after 100 mg racemic ketamine sublingual; for problem gambling expectancy score (GRCS), pre-administration: baseline before 100 mg racemic ketamine sublingual; for % change in problem gambling expectancy: pre-administration to 2-week follow up, 100 mg racemic ketamine sublingual
Experimental: The study spanned a total of 30 days (not counting initial contact and prescreening). Prescreening of all subjects was conducted by phone, and subjects recorded self-report measures, including the Sensitivity to Punishment and Sensitivity to Reward Questionnaire (SPSRQ) and the Gambling Related Cognitions Questionnaire. Prior to beginning treatment, each subject completed the Beck Depression Inventory (BDI) to determine a baseline depression score. Total scores of 0-13 are minimal, 14-19 are mild, 20-28 are moderate, and 29-63 are severe (Beck, Steer, and Brown, 1996).
The remaining follow-up sessions were completed online. Follow-up 1 was completed on Day 4, Follow-up 2 on Day 14, and Follow-up 3 on Day 30. At each follow-up session, the same self-report measures and behavioural tasks were completed.
The five-factor Gambling Related Cognitions Scale (GRCS) was also assessed. The GRCS evaluates gambling-related cognitive distortions for all types of gamblers, regardless of their gambling activities (poker, slots, horse racing, etc.) (Levesque et al., 2017). The GRCS contains five main domains, including inability to stop, expectancies, predictive control, illusion of control, and interpretative bias (Muela, Navas, and Perales, 2021). Gambling expectancy and inability to stop were predictive of problem gambling.

subjects with CSBD = assay: Sensitivity to reward (SPSRQ), Example 10; assay type: in vivo, human; settings: for Sensitivity to Reward at 2-week follow up: after 100 mg racemic ketamine sublingual; for Sensitivity to Reward, pre-administration: baseline before 100 mg racemic ketamine sublingual; for % change in Sensitivity to Reward: pre-administration to 2-week follow up, 100 mg racemic ketamine sublingual
Experimental: Reward sensitivity was assessed using the SPSRQ. Behavioural tasks, EEG measurements, and subjective experience assessments were also completed.
A study was completed on the use of ketamine to treat CSBD. Subjects were assessed for CSBD using the Problematic Pornography Use Scale (PPUS) and were included if they received an PPUS score greater than 3. Three subjects in total were included (CSB1-CSB3). All three were administered sublingual lozenges comprising 100 mg of racemic ketamine.
The treatment protocol commenced in the same way as disclosed in the ketamine in subjects with gambling disorder study completed in EXAMPLE 7, with the exceptions outlined as follows: No behavioural tasks were completed. Self-report measures completed during EXAMPLE 10 included the Emotional Intimacy Measure, the Childhood Trauma Questionnaire, the Generalised Anxiety Disorder-7 (GAD-7), the Morningness-Eveningness Questionnaire (MEQ), and the Problematic Pornography Questionnaire (PPQ), the Acceptance and Action Questionnaire, and the Psychological and Interpersonal Relationship Scales (PAIRS).

CNC1(c2ccccc2Cl)CCCCC1=O (racemic) [ketamine, 2-(2-chlorophenyl)-2-(methylamino)-cyclohexanone]
problem gambling expectancy score (GRCS) at 2-week follow up ([1]; subject G1): 5.5 | problem gambling expectancy score (GRCS), pre-administration ([1]; subject G1): 5 | % change in problem gambling expectancy ([1]; subject G1): +10% | problem gambling expectancy score (GRCS) at 2-week follow up ([1]; subject G2): 2.5 | problem gambling expectancy score (GRCS), pre-administration ([1]; subject G2): 5.5 | % change in problem gambling expectancy ([1]; subject G2): −54.55% | problem gambling expectancy score (GRCS) at 2-week follow up ([1]; subject G3): 4.5 | problem gambling expectancy score (GRCS), pre-administration ([1]; subject G3): 5.25 | % change in problem gambling expectancy ([1]; subject G3): −14.29% | problem gambling expectancy score (GRCS) at 2-week follow up ([1]; subject G4): 2.5 | problem gambling expectancy score (GRCS), pre-administration ([1]; subject G4): 3.75 | % change in problem gambling expectancy ([1]; subject G4): −33.33% | problem gambling expectancy score (GRCS) at 2-week follow up ([1]; subject G5): 1 | problem gambling expectancy score (GRCS), pre-administration ([1]; subject G5): 1.25 | % change in problem gambling expectancy ([1]; subject G5): −20% | Sensitivity to Reward at 2-week follow up (subjects with CSBD; subject CSB1): 9 | Sensitivity to Reward, pre-administration (subjects with CSBD; subject CSB1): 10 | % change in Sensitivity to Reward (subjects with CSBD; subject CSB1): −10% | Sensitivity to Reward at 2-week follow up (subjects with CSBD; subject CSB2): 15 | Sensitivity to Reward, pre-administration (subjects with CSBD; subject CSB2): 15 | Sensitivity to Reward at 2-week follow up (subjects with CSBD; subject CSB3): 9 | Sensitivity to Reward, pre-administration (subjects with CSBD; subject CSB3): 17 | % change in Sensitivity to Reward (subjects with CSBD; subject CSB3): −47.06%
